Where “and” joins values, the source holds several entries; their conditions need not be identical. Equal entries are not always repeated. Entries after “also recorded” stand apart in the source; their conditions may differ.

The source of these data is patent US20210002725A1, “METHODS FOR THE DIAGNOSIS OF METABOLIC DISORDERS USING EPIMETABOLIC SHIFTERS, MULTIDIMENSIONAL INTRACELLULAR MOLECULES, OR ENVIRONMENTAL INFLUENCES” (Berg LLC, priority 2009, published 2021).

The test system of assay [1] is SCC cells. Put plainly: Real-time PCR Heat Shock Protein Array. In kind it is cell-based. The settings on record: 100 μM Q10. An excerpt:
The control cells were untreated cells.
Heat Shock Arrays were run for SCC cells and the data of regulated genes is summarized below in Table 13.

For assay [2], the system named is Pyruvate Kinase M2 (PKM2). Put plainly: Western blot of Pyruvate Kinase M2 levels in cells treated with Coenzyme Q10. In kind it is cell-based, human. How it is done: The samples were processed and run on a 4-12% Bis-Tris Novex NuPAGE gel as described above. The gels were run, transferred and stained essentially as described above.
The lactate dehydrogenase blots were stripped by incubating for 30 minutes with methanol, followed by two 10 minute washes with TBS-T, then 30 minutes of incubation with Stripping buffer at 50 deg C., and followed by two washes with 100 ml or more of TBS-T for 30′ each. The 2 blots were scanned in laser scanner to check for complete stripping. The blots were activated with methanol for 5 seconds, washed with water for 5 minutes, and TBST for 15 minutes. The blots were blocked for 1 hour with 5% blocking reagent in TBS-T at room temperature and then washed 3 times with TBS-T (1×-15′; 2×5′ each) and probed with the rabbit polyclonal antibody for Pyruvate Kinase M2 in 5% BSA (NOVUS BIOLOGICALS catalog #H00005315-D01P) at 1:500 dilution overnight at 4 deg C with shaking. After the overnight incubation with primary antibody for Pyruvate Kinase M2, the membranes were washed 3 times with TBS-T (1×-15′; 2×5′ each) and probed with the secondary antibody (antirabbit; 1:10,000 dilution) for 1 h on the orbital tilting shaker at room temperature. After 1 h of incubation with secondary antibodies, the blots were washed 3 times with TBS-T (1×-15′; 2×5′ each) and then incubated with ECF reagent for 5 minutes and then each blot scanned with 5100 Fuji Laser scanner at 25 uM resolution, 16 bit, green laser, at 400V and at 500 V.
The HASMC samples were processed and the gels were run, transferred, stained and scanned essentially as described above.
The above blots were stripped by incubating for 30 minutes with methanol, followed by two 10 minute washes with TBS-T, then 30 minutes of incubation with Stripping buffer at 50 deg C., and followed by two washes with 100 ml or more of TBS-T for 30′ each. The blots were scanned in laser scanner to check for complete stripping. The blots were activated with methanol for 5 seconds, washed with water for 5 minutes, and TBST for 15 minutes. The blots were blocked for 1 hour with 5% blocking reagent in TBS-T at room temperature and then washed 3 times with TBS-T (1×-15′; 2×5′ each) and probed with the primary antibody for PKM2, SDHB or SDHC in 5% BSA in TBS-T by incubation overnight at 4 deg C. with gentle shaking. The primary antibody for SDHC (ABNOVA H00006391-M02; antimouse) was at 1:500 dilution. The primary antibody for SDHB was from Abcam ab4714-200; antimouse; at 1:1000 dilution. The primary antibody for Pyruvate Kinase M2 (PKM2) was from Novus Biologicals H00005315-DOIP; antirabbit; at 1:500 dilution. After incubation with primary antibodies, the membranes were washed 3 times with TBS-T (1×-15′; 2×5′ each) and probed with the secondary antibody (SDHB & C antimouse; and PKM2 antirabbit; 1:10,000 dilution) for 1 hon the orbital tilting shaker at room temperature. After 1 h of incubation, the blots were washed 3 times with TBS-T (1×-15′; 2×5′ each) and incubated with ECF reagent for 5 minutes and then each blot scanned with 5100 Fuji Laser scanner at 25 uM resolution, 16 bit, green laser, at 400V and at 500 V.

In assay [3] the test system is HASMC cells. Put plainly: SeaHorse XF analyzer OCR and ECAR. In kind it is cell-based, human. The following applies: hyperglycemic cells in hypoxic conditions. An excerpt:
Environmental influencers (e.g., MIMs or Epi-shifters) may also be identified by changes in cellular energetics. One example of the measurement of cellular energetics are the real-time measures of the consumption of molecular oxygen and/or the change in pH of the media of a cell culture. For example, the ability of a potential epi-shifter to modulate the metabolic state of a cell may be analyzed using, for example, the XF24 Analyzer (Seahorse, Inc.). This technology allows for real time detection of oxygen and pH changes in a monolayer of cells in order to evaluate the bioenergetics of a cell microenvironment. The XF24 Analyzer measures and compares the rates of oxygen consumption (OCR), which is a measure of aerobic metabolism, and extracellular acidification (ECAR), which is a measure of glycolysis, both key indicators of cellular energetics.
(SeaHorse Biosciences Inc, North Billerica, Mass.).
In this experiment, the OCR and extracellular acidification rate (ECAR) in normal cells lines were obtained in the presence and absence of CoQ10 to determine baseline values. It was observed that in its native nutrient environment, the basal OCR rates in normal cells lines are different, and are usually a function of the physiological roles of the cells in the body. […]

Assay [4] deals with key proteins. Put plainly: Summary of key proteins modulated by Q10.

In the case of `COC1=C(OC)C(=O)C(C/C=C(\C)CC/C=C(\C)CC/C=C(\C)CC/C=C(\C)CC/C=C(\C)CC/C=C(\C)CC/C=C(\C)CC/C=C(\C)CC/C=C(\C)CCC=C(C)C)=C(C)C1=O` [Q10, Coenzyme Q10], the “Regulation (mRNA) at 6 hours” value in assay [1] is listed as “Down regulated”. For the same compound, the “Regulation (mRNA) at 24 hours” value in assay [1] was “Down regulated”. The “PKM2 Upper Band Normalized Intensity” value in assay [2] (HASMC, 5 g, 48 h, 50 μM) is 811; in assay [2] (HASMC, 5 g, 48 h, 100 μM) it was 611; in assay [2] (HASMC, 22 G, 24 h, 50 μM), 477; in assay [2] (HASMC, 22 G, 24 h, 100 μM) it was 701; in assay [2] (HASMC, 22 G, 48 h, 50 μM), 595; in assay [2] (HASMC, 22 G, 48 h, 100 μM), 496. Moreover, the “PKM2 Upper Band Normalized Intensity” value in assay [2] (HepG2, 5 g, 48 h, 50 μM) is recorded as 303; in assay [2] (HepG2, 5 g, 48 h, 100 μM) it was 354; in assay [2] (HepG2, 22 G, 48 h, 50 μM) it was 562; in assay [2] (HepG2, 22 G, 48 h, 100 μM) it was 601. Also, the “PKM2 Upper Band Normalized Volume” value in assay [2] (HepG2, 5 g, 24 h, 50 μM) was found to be 29269; in assay [2] (HepG2, 5 g, 24 h, 100 μM), 18307; in assay [2] (HepG2, 22 G, 24 h, 50 μM), 22294; in assay [2] (HepG2, 22 G, 24 h, 100 μM), 19560. Also, the ECAR rates entry in assay [3] is “downward trend”. In assay [4], the “Key proteins modulated: Apoptotic response” value is “Bcl-xl, Bcl-xS, BNIP-2, Bcl-2, Birc6,; also recorded: Bcl-2-L11 (Bim), XIAP, BRAF, Bax,; also recorded: c-Jun, Bmf, PUMA, cMyc”. Further, in assay [4], the “Key proteins modulated: Biosynthetic pathway” value was “COQ1, COQ3, COQ6, prenyltransferase, and 4-hydroxybenzoate”. The “Key proteins modulated: Oxidative phosphorylation metabolism” value in assay [4] is “Cytochrome c, complex I, complex II,; also recorded: complex III, complex IV,”. In assay [4], the “Key proteins modulated: Pentose Phosphate Pathway” value was “transaldolase 1”. The “Key proteins modulated: Transcription factors” value in assay [4] is “HNF4alpha”.
